# Measurements taken from US9394352B2, “Immunogenic POTE peptides and methods of use” (The United States of America, as represented by the …, priority 2010, dated 2016).
# Tests used:
# [1] = tested on: IFN-γ secreting spleen cells; test: ex vivo IFN-γ ELISPOT assay on splenocytes of peptide-immunized AAD mice; type: in vivo; details: AAD mice immunized s.c., splenocytes pooled from three mice two weeks after boost
# Description: FIGS. 3A and 3B are graphs showing immunogenicity of the wild type and enhanced POTE 252 epitopes in AAD mice. AAD mice were immunized subcutaneously with a mixture of peptide and cytokines in adjuvant as described in Example 1. (FIG. 3A) Two weeks after the second boost, splenocytes pooled from three mice were restimulated with splenocytes of naïve AAD mice pulsed with 1.0 μM of each peptide at different effector to target (E/T) ratios. Cells were cultured in anti-mouse IFN-γ antibody coated ELISPOT™ plates. After overnight culture, biotinylated anti-mouse IFN-γ antibodies were added to each well. ELISPOT™ substrates were added to develop the color and spots were counted by an ELISPOT™ reader (AID ELISPOT™ reader system). Figures show numbers of spots per million cells. (FIG. 3B) CTL cross-reactivity on each peptide. Two weeks after the second boost, pooled spleen cells from three mice were restimulated with irradiated splenocytes pulsed with 1.0 μM of peptide for 7 days. In a 4-hour ^51Cr release assay, CIR.AAD cells were pulsed with 1.0 μM of peptide and labeled with ^51Cr. After washing three times, target cells were mixed with different numbers of effector cells and then cultured for 4 hours before harvesting.
# FIGS. 4A-4D are graphs showing immunogenicity of the wild type and enhanced POTE 553 epitopes in AAD mice. AAD mice were immunized subcutaneously with a mixture of peptide and cytokines in adjuvant. (FIGS. 4A and 4B) Two weeks after the second boost, splenocytes pooled from three mice were restimulated with splenocytes of naïve AAD mice pulsed with 10 nM to 1.0 μM of each peptide at different E/T ratios. Cells were cultured in anti-mouse IFN-γ antibody coated ELISPOT™ plates. After overnight culture, biotinylated anti-mouse IFN-γ antibodies were added to each well. ELISPOT™ substrates were added to develop color and spots were counted by an ELISPOT™ reader (AID ELISPOT™ reader system). Figures show numbers of spots per million cells. (FIGS. 4C and 4D) CTL cross-reactivity on each peptide. Two weeks after the second boost, pooled spleen cells from three mice were restimulated with irradiated splenocytes pulsed with 1.0 μM of peptide for 7 days. In a 4-hour ^51Cr release assay, CIR.AAD cells were pulsed with 1.0 μM of peptide and labeled with ^51Cr. After washing three times, target cells were mixed with different numbers of effector cells and then cultured for 4 hours before harvesting.
# FIGS. 5A and 5B are graphs showing immunogenicity of the POTE 272 epitope in AAD mice. AAD mice were immunized subcutaneously with a mixture of peptide and cytokines in adjuvant. (FIG. 5A) Two weeks after the second boost, splenocytes pooled from three mice were restimulated with splenocytes of naïve AAD mice pulsed with 1.0 μM POTE 272 peptide at different E/T ratios. Cells were cultured in anti-mouse IFN-γ antibody coated ELISPOT™ plates. After overnight culture, biotinylated anti-mouse IFN-γ antibodies were added in each well. ELISPOT™ substrates were added to develop color and spots were counted by an ELISPOT™ reader (AID ELISPOT™ reader system). Figures show numbers of spots per million cells. (FIG. 5B) CTL reactivity on POTE 272 peptide. Two weeks after the second boost, pooled spleen cells from three mice were restimulated with irradiated splenocytes pulsed with 1.0 μM POTE 272 peptide for 7 days. In a 4-hour ^51Cr release assay, CIR.AAD cells were pulsed with 1.0 μM POTE 272 peptide and labeled with ^51Cr. After washing three times, target cells were mixed with different numbers of effector cells and then cultured for 4 hours before harvesting.
# FIGS. 6A and 6B are graphs showing immunogenicity of the wild type and enhanced POTE 323 epitopes in AAD mice. AAD mice were immunized subcutaneously with a mixture of peptide and cytokines in adjuvant. (FIG. 6A) Two weeks after the second boost, splenocytes pooled from three mice were restimulated with splenocytes of naïve AAD mice pulsed with 1.0 μM of each peptide at different E/T ratios. […]
# HLA-A2/POTE252 tetramer = test: HLA-A2/peptide tetramer stain and TCR Vβ repertoire of CTLs from immunized HHD-2 mice; type: in vivo; details: after 1-week in vitro stimulation with cognate peptide
# Description: FIGS. 7A-7C are FACS plots showing HLA-A2/peptide tetramer staining and T cell receptor (TCR) repertoire determination for POTE 252- and POTE 252-9V-induced CTLs. HHD-2 mice were immunized subcutaneously with a mixture of peptide and cytokines in adjuvant. Two weeks after the second boost, pooled spleen cells from three mice were restimulated with irradiated splenocytes pulsed with 1.0 μM of peptide for 1 week. (FIG. 7A) Percentage of the HLA-A2/POTE252 tetramer-positive cells in the POTE 252- and POTE 252-9V-induced CTLs. (FIG. 7B) TCR Vβ repertoires of the tetramer^+CD8^+ T cells in POTE 252-induced CTLs. (FIG. 7C) TCR Vβ repertoires of the tetramer^+CD8^+ T cells in POTE 252-9V-induced CTLs.
# AAD or HHD-2 mice were immunized subcutaneously (s.c.) in the base of the tail with 100 μl of an emulsion containing 1:1 incomplete Freund's adjuvant (Sigma) and PBS with peptides and cytokines (50 nmol of CTL epitope, 50 nmol of hepatitis B virus core 128-140 helper epitope, 5 μg of mouse interleukin-12, and 5 μg of mouse granulocyte macrophage colony-stimulating factor). Cytokines were purchased from Peprotech (Rocky Hill, N.J.). Mice were boosted 2 weeks later, and the spleens were removed 2 weeks after the boost. For all experiments, groups of three mice were used. […]
sequence,measurement,setting,value
"KLMAKALLL [POTE 252-260, unmodified 9-mer peptide, residues 252-260 of human POTE]",IFN-γ response (ELISPOT spots) on stimulation with the immunizing peptide,[1],induced a significant number of IFN-γ spots
same,tetramer-positive CD8+ T cells,HLA-A2/POTE252 tetramer,9.3%
